Molecules are shown by their SMILES. Like-named read-outs stand apart in the source and are kept apart here. Starred links: 1 amine or outer side, 2 acyl side, 3 side chain; linkers in the order of their positions; H or OH if unused. Positions of bridges follow the written chain, without caps; N, C: chain ends. Non-standard residues stand in square brackets, D forms with d. Residues, ends and D or L forms follow the SMILES beside them. Groups on a side chain read outwards from the residue. *: point of attachment. Trp(1-Me) = Cn1cc(C[C@H](N)C(=O)O)c2ccccc21; Abu(4-yl) = O=C([C@H](CC[*:3])N[*:1])[*:2]; C18 diacid = O=C(O)CCCCCCCCCCCCCCCCC(=O)*; C16 diacid = O=C(O)CCCCCCCCCCCCCCC(=O)*; γGlu = O=C(O)[C@H](CCC(=O)[*:2])N[*:1]; AEEA = NCCOCCOCC(=O)O; Sar = CNCC(=O)O

The test system of this test is classical complement pathway. The test is described as follows: In vitro haemolysis assay (inhibition of classical complement pathway). The test is classed as cell-based, human. On the procedure:
Method The in vitro effect of test compounds was assessed by measuring their inhibitory effect of the classical complement pathway in a haemolysis assay. Briefly, test compounds and reference compounds were dissolved in DMSO and diluted in Tris/Casein Assay Buffer (10 mM Tris, 145 mM NaCl, 0.5 mM MgCl2, 0.15 mM CaCl2, and 0.1% W/V Casein, adjusted to pH 7.4) as 9-point serial dilutions in a 96 well plate. Sensitized sheep red blood cells (RBC) coated with rabbit anti-sheep erythrocyte antiserum (Complement Technology, Inc., TX, USA) were washed in Tris/Casein Assay Buffer. 50 μL from each well of diluted compound was added to a 96-well plate containing 50 μL diluted human serum (Complement Technology, Inc., TX, USA) and incubated for 15 minutes at room temperature. The serum dilution factor was optimized for every serum batch to obtain 70-90% of maximal haemolysis using the protocol. Then 50 μL sensitized sheep red blood cells were added to all wells ([…] per well). After 30 minutes of incubation at 37° C. with gentle agitation, the reaction was stopped by addition of 50 μL Tris STOP Buffer per well (10 mM EDTA, 10 mM Tris, 145 mM NaCl adjusted to pH 7.4). The RBCs were then removed by centrifugation and the resulting supernatant measured for hemolysis by absorbance at 405 nm. The response was normalized relative to a positive and negative control (vehicle) to calculate the IC50 from the concentration response curve using the 4-parameter logistic (4PL) nonlinear model for curve fitting.

Setting [1] is: Table 3, human serum, sensitized sheep red blood cells, read-out: IC50[nM], in vitro analysis of inhibition of hemolysis.
[2] abbreviates: Table 4, valine 3 versus isoleucine 3 pairs, read-out: CP hemolysis IC50.

Usually IC50 stands for the concentration needed to halve the response being measured. As to `CC[C@H](C)[C@@H]1NC(=O)[C@@H](NC(=O)[C@H](Cc2ccccc2)NC(=O)[C@H](CCC(=O)O)NC(=O)[C@H](CO)NC(C)=O)CCSC[C@@H](C(=O)N[C@H](C(=O)N[C@@H](CCC(=O)O)C(=O)NCC(=O)N[C@@H](CCC(=O)O)C(=O)NCCOCCOCC(=O)N[C@@H](CCC(=O)O)C(=O)N[C@@H](CO)C(=O)N[C@@H](CCCCNC(=O)CC[C@H](NC(=O)CCCCCCCCCCCCCCCCC(=O)O)C(=O)O)C(N)=O)[C@@H](C)O)NC(=O)[C@H](CCCNC(=N)N)NC(=O)[C@H](Cc2c[nH]cn2)NC(=O)[C@H](CCC(=O)O)NC(=O)CNC(=O)[C@H](Cc2c[nH]c3ccccc23)NC(=O)[C@H](CC(=O)O)NC(=O)[C@H](CCC(N)=O)NC(=O)[C@H](Cc2cn(C)c3ccccc23)NC1=O` [Compound 165] (Ac-SEF[Abu(4-yl)]I[Trp(1-Me)]QDWGEHRCTEGE[AEEA]ESK([γGlu-C18 diacid])-NH2; thioether 4-14), the IC50 under setting [1] was less than 250 nM.

For `CC[C@H](C)[C@@H]1NC(=O)[C@@H](NC(=O)[C@H](Cc2ccccc2)NC(C)=O)CSSC[C@@H](C(=O)N[C@H](C(N)=O)[C@@H](C)O)NC(=O)[C@H](CCCNC(=N)N)NC(=O)[C@H](Cc2c[nH]cn2)NC(=O)[C@H](CCC(=O)O)NC(=O)CNC(=O)[C@H](Cc2c[nH]c3ccccc23)NC(=O)[C@H](CC(=O)O)NC(=O)[C@H](CCC(N)=O)NC(=O)[C@H](Cc2c[nH]c3ccccc23)NC1=O` [Compound 23] (Ac-FCIWQDWGEHRCT-NH2; disulfide 2-12), the half-inhibitory concentration (IC50) under setting [1] is less than 100 nM.

Consider `CC[C@H](C)[C@H](NC(=O)[C@H](C)NC(=O)[C@H](CO)NC(=O)CNC(=O)[C@H](CCC(=O)O)NC(C)=O)C(=O)N[C@H]1CSSC[C@@H](C(=O)N[C@H](C(=O)N[C@@H](CCC(=O)O)C(=O)NCC(=O)N[C@@H](CCCCNC(=O)CC[C@H](NC(=O)CCCCCCCCCCCCCCC(=O)O)C(=O)O)C(N)=O)[C@@H](C)O)NC(=O)[C@H](CCCNC(=N)N)NC(=O)[C@H](Cc2c[nH]cn2)NC(=O)[C@H](CCC(=O)O)NC(=O)CNC(=O)[C@H](Cc2c[nH]c3ccccc23)NC(=O)[C@H](CC(=O)O)NC(=O)[C@H](CCC(N)=O)NC(=O)[C@H](Cc2c[nH]c3ccccc23)NC(=O)[C@H]([C@@H](C)CC)NC1=O` [Compound 101] (Ac-EGSAICIWQDWGEHRCTEGK([γGlu-C16 diacid])-NH2; disulfide 6-16), for which, under setting [1], the IC50 was less than 500 nM.

On to `CC[C@H](C)[C@H](NC(C)=O)C(=O)N[C@H]1CSSC[C@@H](C(=O)N[C@H](C(N)=O)[C@@H](C)O)NC(=O)[C@H](CCCNC(=N)N)NC(=O)[C@H](Cc2c[nH]cn2)NC(=O)[C@H](Cc2c[nH]cn2)NC(=O)CNC(=O)[C@H](Cc2c[nH]c3ccccc23)NC(=O)[C@H](CC(=O)O)NC(=O)[C@H](CCC(N)=O)NC(=O)[C@H](C(C)C)NC(=O)[C@H](C(C)C)NC1=O` [Ac-compstatin, reference compound], for which the IC50 (Table 3, cells that print μM, read-out: IC50, in vitro analysis of inhibition of hemolysis) was more than 5000 nM.

Regarding `CC(C)C[C@H](N)C(=O)O` [Leucine, reference compound], the 50% inhibitory concentration (IC50) (Table 5, different residues at position 3 of Ac-IC(1)XWQDWGEHRC(1)T-NH2, read-out: IC50, CP hemolysis) stood at 500 nM.

Take `CC[C@H](C)[C@H](NC(C)=O)C(=O)N[C@H]1CSSC[C@@H](C(=O)N[C@H](C(N)=O)[C@@H](C)O)NC(=O)[C@H](CO)NC(=O)[C@H](Cc2c[nH]cn2)NC(=O)[C@H](C)NC(=O)CNC(=O)[C@H](Cc2c[nH]c3ccccc23)NC(=O)[C@H](CC(=O)O)NC(=O)[C@H](CCC(N)=O)NC(=O)[C@H](Cc2c[nH]c3ccccc23)NC(=O)[C@H]([C@@H](C)CC)NC1=O` [Compound 19] (Ac-ICIWQDWGAHSCT-NH2; disulfide 2-12): the IC50 is, setting by setting: under setting [1], less than 250 nM; under setting [2], 140 nM.

For the compound `CC[C@H](C)[C@@H]1NC(=O)[C@@H](NC(=O)[C@H](Cc2ccccc2)NC(=O)[C@H](CCC(=O)O)NC(=O)[C@H](CO)NC(C)=O)CSSC[C@@H](C(=O)N(C)CC(=O)N[C@@H](CCC(=O)O)C(=O)NCC(=O)N[C@@H](CCC(=O)O)C(=O)NCCOCCOCC(=O)NCCOCCOCC(=O)NCCOCCOCC(=O)N[C@@H](CCCCNC(=O)CC[C@H](NC(=O)CNC(=O)CC[C@H](NC(=O)CCCCCCCCCCCCCCCCC(=O)O)C(=O)O)C(=O)O)C(N)=O)NC(=O)[C@H](CCCNC(=N)N)NC(=O)[C@H](Cc2c[nH]cn2)NC(=O)[C@H](CCC(=O)O)NC(=O)CNC(=O)[C@H](Cc2c[nH]c3ccccc23)NC(=O)[C@H](CC(=O)O)NC(=O)[C@H](CCC(N)=O)NC(=O)[C@H](Cc2cn(C)c3ccccc23)NC1=O` [Compound 143] (Ac-SEFCI[Trp(1-Me)]QDWGEHRC[Sar]EGE[AEEA][AEEA][AEEA]K([γGlu-Gly-γGlu-C18 diacid])-NH2; disulfide 4-14), the IC50 under setting [1] is less than 100 nM.

With `CC[C@H](C)[C@H](NC(C)=O)C(=O)N[C@H]1CSSC[C@@H](C(=O)N[C@H](C(N)=O)[C@@H](C)O)NC(=O)[C@H](CCCNC(=N)N)NC(=O)[C@H](Cc2c[nH]cn2)NC(=O)[C@H](CC(=O)O)NC(=O)CNC(=O)[C@H](Cc2c[nH]c3ccccc23)NC(=O)[C@H](CC(=O)O)NC(=O)[C@H](CCC(N)=O)NC(=O)[C@H](Cc2c[nH]c3ccccc23)NC(=O)[C@H]([C@@H](C)CC)NC1=O` [Compound 17] (Ac-ICIWQDWGDHRCT-NH2; disulfide 2-12), the IC50 under setting [1] is less than 100 nM.

Turning to `CC[C@H](C)[C@@H]1NC(=O)[C@@H](NC(=O)[C@H](Cc2ccc(O)cc2)NC(=O)[C@H](CCC(=O)O)NC(=O)CNC(=O)[C@H](CO)NC(=O)[C@H](C)NC(C)=O)CSSC[C@@H](C(=O)N(C)CC(=O)N[C@@H](CCC(=O)O)C(=O)NCC(=O)N[C@@H](CCC(=O)O)C(=O)N[C@@H](CCCCNC(=O)CC[C@H](NC(=O)CNC(=O)CC[C@H](NC(=O)CCCCCCCCCCCCCCCCC(=O)O)C(=O)O)C(=O)O)C(N)=O)NC(=O)[C@H](CCCNC(=N)N)NC(=O)[C@H](Cc2c[nH]cn2)NC(=O)[C@H](CCC(=O)O)NC(=O)CNC(=O)[C@H](Cc2c[nH]c3ccccc23)NC(=O)[C@H](CC(=O)O)NC(=O)[C@H](CCC(N)=O)NC(=O)[C@H](Cc2cn(C)c3ccccc23)NC1=O` [Compound 113] (Ac-ASGEYCI[Trp(1-Me)]QDWGEHRC[Sar]EGEK([γGlu-Gly-γGlu-C18 diacid])-NH2; disulfide 6-16), the IC50 under setting [1] is less than 500 nM.

Turning to `CC[C@H](C)[C@H](NC(C)=O)C(=O)N[C@H]1CSSC[C@@H](C(=O)N[C@H](C(N)=O)[C@@H](C)O)NC(=O)[C@H](CCCNC(=N)N)NC(=O)[C@H](Cc2c[nH]cn2)NC(=O)[C@H](CO)NC(=O)CNC(=O)[C@H](Cc2c[nH]c3ccccc23)NC(=O)[C@H](CC(=O)O)NC(=O)[C@H](CCC(N)=O)NC(=O)[C@H](Cc2c[nH]c3ccccc23)NC(=O)[C@H]([C@@H](C)CC)NC1=O` [Compound 6] (Ac-ICIWQDWGSHRCT-NH2; disulfide 2-12), the concentration for half-maximal inhibition (IC50) under setting [1] was less than 250 nM and the half-inhibitory concentration (IC50) under setting [2] came to 140 nM.

As for `CC[C@H](C)[C@@H]1NC(=O)[C@@H](NC(=O)[C@H](Cc2ccccc2)NC(=O)[C@H](CCC(=O)O)NC(=O)CNC(C)=O)CSSC[C@@H](C(=O)N(C)CC(=O)N[C@@H](CCC(=O)O)C(=O)N[C@@H](C)C(N)=O)NC(=O)[C@H](CCCNC(=N)N)NC(=O)[C@H](Cc2c[nH]cn2)NC(=O)[C@H](CCC(=O)O)NC(=O)CNC(=O)[C@H](Cc2c[nH]c3ccccc23)NC(=O)[C@H](CC(=O)O)NC(=O)[C@H](CCC(N)=O)NC(=O)[C@H](Cc2cn(C)c3ccccc23)NC1=O` [Compound 87] (Ac-GEFCI[Trp(1-Me)]QDWGEHRC[Sar]EA-NH2; disulfide 4-14), the 50% inhibitory concentration (IC50) under setting [1] was less than 100 nM.

Turning to `CC[C@H](C)[C@@H]1NC(=O)[C@@H](NC(=O)[C@H](Cc2ccc(O)cc2)NC(=O)[C@H](C)NC(=O)[C@H](CO)NC(=O)CNC(=O)[C@H](CCC(=O)O)NC(C)=O)CSSC[C@@H](C(=O)N[C@H](C(=O)N[C@@H](CCC(=O)O)C(N)=O)[C@@H](C)O)NC(=O)[C@H](CCCNC(=N)N)NC(=O)[C@H](Cc2c[nH]cn2)NC(=O)[C@H](CCC(=O)O)NC(=O)CNC(=O)[C@H](Cc2c[nH]c3ccccc23)NC(=O)[C@H](CC(=O)O)NC(=O)[C@H](CCC(N)=O)NC(=O)[C@H](Cc2cn(C)c3ccccc23)NC1=O` [Compound 59] (Ac-EGSAYCI[Trp(1-Me)]QDWGEHRCTE-NH2; disulfide 6-16), the IC50 under setting [1] is less than 100 nM.

As to `CC[C@H](C)[C@@H]1NC(=O)[C@@H](NC(=O)[C@H](Cc2ccccc2)NC(=O)[C@H](CCC(=O)O)NC(=O)[C@H](CO)NC(C)=O)CSSC[C@@H](C(=O)N[C@H](C(=O)N[C@@H](CCC(=O)O)C(=O)NCC(=O)N[C@@H](CCC(=O)O)C(=O)NCC(=O)NCC(=O)NCC(=O)N[C@@H](CCCCNC(=O)CC[C@H](NC(=O)CNC(=O)CC[C@H](NC(=O)CCCCCCCCCCCCCCC(=O)O)C(=O)O)C(=O)O)C(N)=O)[C@@H](C)O)NC(=O)[C@H](CCCNC(=N)N)NC(=O)[C@H](Cc2c[nH]cn2)NC(=O)[C@H](CCC(=O)O)NC(=O)CNC(=O)[C@H](Cc2c[nH]c3ccccc23)NC(=O)[C@H](CC(=O)O)NC(=O)[C@H](CCC(N)=O)NC(=O)[C@H](Cc2cn(C)c3ccccc23)NC1=O` [Compound 131] (Ac-SEFCI[Trp(1-Me)]QDWGEHRCTEGEGGGK([γGlu-Gly-γGlu-C16 diacid])-NH2; disulfide 4-14), the concentration for half-maximal inhibition (IC50) under setting [1] is less than 100 nM.

For the origin of these results see US20220306695A1, “COMPSTATIN ANALOGUES AND THEIR MEDICAL USES” (priority 2019, published 2022).
